Data reported in patent US20060141076A1, “Morinda citrifolia based compositions and methods for inhibiting xanthine oxidase” (priority 2004, published 2006).

Biological target: T1, Xanthine Oxidase (Bos taurus, UniProt P80457)
T1 construct: Xanthine Oxidase was obtained from Bovine butter milk; from tissue; host or cells: bovine buttermilk
Assay: Xanthine oxidase inhibition assay (uric acid quantitated by spectrophotometer, 165 μM xanthine substrate)
Type: biochemical, Bovine
Conditions: Allopurinol comparison; concentration not given
From the text: All other results are expressed in terms of that assay's quantitation method. For primary assays, only the lowest concentration with a significant response judged by the assays' criteria, is shown in this summary.
Methods employed in this study were adapted from the scientific literature to maximize reliability and reproducibility.

T1 sequence (P80457 whole entry): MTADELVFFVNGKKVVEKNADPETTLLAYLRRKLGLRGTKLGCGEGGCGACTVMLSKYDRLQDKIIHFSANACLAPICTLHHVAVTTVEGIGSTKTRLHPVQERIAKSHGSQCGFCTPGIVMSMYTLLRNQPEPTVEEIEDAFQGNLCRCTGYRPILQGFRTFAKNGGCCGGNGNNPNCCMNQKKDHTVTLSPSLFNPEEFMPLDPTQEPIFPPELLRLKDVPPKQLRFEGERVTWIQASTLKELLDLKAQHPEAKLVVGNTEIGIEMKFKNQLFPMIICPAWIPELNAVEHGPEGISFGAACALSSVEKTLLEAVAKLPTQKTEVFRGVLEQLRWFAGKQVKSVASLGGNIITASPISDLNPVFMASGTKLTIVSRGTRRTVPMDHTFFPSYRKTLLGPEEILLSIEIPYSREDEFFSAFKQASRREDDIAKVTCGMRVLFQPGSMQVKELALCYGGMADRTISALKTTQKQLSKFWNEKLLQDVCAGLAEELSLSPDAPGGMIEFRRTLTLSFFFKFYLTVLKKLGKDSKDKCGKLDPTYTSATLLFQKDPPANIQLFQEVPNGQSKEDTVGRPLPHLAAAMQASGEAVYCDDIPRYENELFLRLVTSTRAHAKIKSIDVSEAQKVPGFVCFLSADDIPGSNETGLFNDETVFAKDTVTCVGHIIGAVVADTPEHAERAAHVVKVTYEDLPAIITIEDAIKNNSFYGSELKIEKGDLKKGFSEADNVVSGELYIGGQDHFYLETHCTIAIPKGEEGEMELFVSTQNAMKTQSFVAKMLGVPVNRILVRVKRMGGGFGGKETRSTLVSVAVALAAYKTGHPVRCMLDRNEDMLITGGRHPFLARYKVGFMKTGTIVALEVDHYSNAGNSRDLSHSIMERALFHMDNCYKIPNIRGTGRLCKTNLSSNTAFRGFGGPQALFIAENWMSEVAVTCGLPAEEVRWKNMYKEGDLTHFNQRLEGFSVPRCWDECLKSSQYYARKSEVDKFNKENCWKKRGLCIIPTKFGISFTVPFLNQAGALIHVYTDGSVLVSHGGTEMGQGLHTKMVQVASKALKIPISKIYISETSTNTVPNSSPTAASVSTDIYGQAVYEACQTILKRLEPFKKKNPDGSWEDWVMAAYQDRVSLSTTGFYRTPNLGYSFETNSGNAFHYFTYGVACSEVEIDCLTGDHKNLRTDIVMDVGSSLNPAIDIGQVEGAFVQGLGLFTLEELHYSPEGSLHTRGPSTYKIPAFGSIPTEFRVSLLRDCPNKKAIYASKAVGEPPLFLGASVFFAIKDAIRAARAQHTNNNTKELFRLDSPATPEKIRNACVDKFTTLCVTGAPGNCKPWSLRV

## Oc1ncnc2[nH]ncc12 [Allopurinol]
  percent inhibition of xanthine oxidase: approximately 90%
